From patent US4117136A, “Systemic antimicrobial quinolines for plant disease” (Sumitomo Chemical Company, Ltd., priority 1976, dated 1978)
Converted amounts (≈) assume the structure as drawn. Counter-ions that a name gives are not always drawn. Like-named read-outs stand apart in the source and are kept apart here.

Experiments:
E. carotovora = test: Antibacterial activity against E. carotovora (agar dilution MIC); details: for MIC: Pectobacterium carotovorum, 72 h, read-out: MIC (minimum inhibitory concentration); for antibacterial activity: result in words, in vitro, Erwinia carotovora
Pseudomonas solanacearum = assay type: in vivo, Pseudomonas solanacearum (on tomato, Sekai Ichi); details: soil application, one day after inoculation, assessed after additional 10 days
Erwinia carotovora = test: Plant systemic activity (root immersion, Chinese cabbage); details: roots immersed, 10 ppm, inoculated after 2 days
P. lachrymans = test: Controlling angular leaf spot of cucumber by seed treatment; details: grown 2 weeks
Xanthomonas oryzae = assay type: in vivo, Xanthomonas oryzae (on rice plant, Kinki #33); details: spray, 500 ppm, 4 hours before inoculation, 7 days, bacterial-exudation method
Pseudomonas lachrymans = test: Disease prevention effect on angular leaf spot of cucumber; assay type: in vivo, Pseudomonas lachrymans (on cucumber, Cucumis sativus L.); details: spray, 4 hours before inoculation
Description: Four hours after the application of the sample, a suspension of Pseudomonas lachrymans was inoculated by spraying on the plant. […] Incidence of disease was assessed in the following manner. […] |______________________________________ |______________________________________ |0 Healthy […] |3 26-50% diseased spot areas […] | [drawing 22] Five plants were used for each treatment.

[1] = inoculated seeds soaked 30 minutes, 500 ppm

For CCn1cc(C(=O)O)c(=O)c2ccc(C)nc21 [Nalidixic acid, nalidixic acid, reference compound], the MIC (E. carotovora) was 6.25 µg/mL (≈ 26.9 µM).
Compound O=C(O)c1cn(CC(F)(F)F)c2cc3c(cc2c1=O)OCO3 [(6)] has an MIC (E. carotovora) of 3.12 µg/mL (≈ 9.9 µM).
In the case of CCn1cc(C(=O)O)c(=O)c2cc3c(cc21)OCO3 [Compound (1)], the “Ratio of Diseased Seedling” value (Pseudomonas solanacearum; 500 ppm) is reported as 10%, the “Severity of Disease” value (Erwinia carotovora) is reported as 0% and the “Infected Plants” value (P. lachrymans; [1]) is reported as 0%. For the same compound, the “Severity of Disease” value (Xanthomonas oryzae) was 0%, the MIC (E. carotovora) was 1.56 µg/mL (≈ 5.97 µM) and the “Severity of Disease” value (Pseudomonas lachrymans; 500 ppm) was 7.9%.
With C=Cn1cc(C(=O)O)c(=O)c2cc3c(cc21)OCO3 [(13)] the “Ratio of Diseased Seedling” value (Pseudomonas solanacearum; 500 ppm) was 4%, the “Severity of Disease” value (Erwinia carotovora) was 0% and the “Infected Plants” value (P. lachrymans; [1]) was 0%. For the same compound, the “Severity of Disease” value (Xanthomonas oryzae) was 0%, the “MIC (minimum inhibitory concentration)” value (E. carotovora; agar culture medium, 3 days at 27° C) was 0.78 µg/mL (≈ 3.01 µM) and the “Severity of Disease” value (Pseudomonas lachrymans; 500 ppm) was 2.4%.
For OCl [Sodium Hypochlorite, reference compound], the “Infected Plants” value (P. lachrymans; inoculated seeds soaked 30 minutes, 2,000 ppm) was 7.5%.
CCn1cc(C(=O)OC)c(=O)c2cc3c(cc21)OCO3 [(2)] was tested, and the “Ratio of Diseased Seedling” value (Pseudomonas solanacearum; 500 ppm) was 36%, the “Severity of Disease” value (Erwinia carotovora) was 0% and the “Infected Plants” value (P. lachrymans; [1]) was 0%. For the same compound, the “Severity of Disease” value (Xanthomonas oryzae) was 0%, the MIC (E. carotovora) was over 50 µg/mL and the antibacterial activity (E. carotovora) was “very weak antibacterial activity”. For the same compound, the “Severity of Disease” value (Pseudomonas lachrymans; 500 ppm) was 25%.
COn1cc(C(=O)O)c(=O)c2cc3c(cc21)OCO3 [(3)] showed an MIC (E. carotovora) of 0.39 µg/mL (≈ 1.48 µM).
In the case of COn1cc(C(=O)O)c(=O)c2c3sc(=O)n(C)c3ccc21 [(10)], the “Severity of Disease” value (Erwinia carotovora) is reported as 25% and the MIC (E. carotovora) is reported as 0.049 µg/mL (≈ 0.16 µM).
For [H]/N=C(/N)N[C@H]1[C@H](O)[C@@H](O)[C@H](O[C@@H]2O[C@@H](C)[C@](O)(C=O)[C@H]2O[C@@H]2O[C@@H](CO)[C@H](O)[C@@H](O)[C@@H]2NC)[C@@H](N/C(N)=N\[H])[C@@H]1O [Streptomycin Sulfate, reference compound], the “Ratio of Diseased Seedling” value (Pseudomonas solanacearum; 200 ppm) was 86%, the “Severity of Disease” value (Erwinia carotovora) was 31% and the “Infected Plants” value (P. lachrymans; inoculated seeds soaked 30 minutes, 200 ppm) was 26.5%. For the same compound, the “Severity of Disease” value (Pseudomonas lachrymans; 200 ppm) was 28%.
In the case of CCOC(=O)c1cn(CCF)c2cc3c(cc2c1=O)OCO3 [(8)], the “Ratio of Diseased Seedling” value (Pseudomonas solanacearum; 500 ppm) is reported as 24%, the “Severity of Disease” value (Erwinia carotovora) is reported as 0% and the “Infected Plants” value (P. lachrymans; [1]) is reported as 0%. For the same compound, the “Severity of Disease” value (Xanthomonas oryzae) was 0%, the MIC (E. carotovora) was over 50 µg/mL and the antibacterial activity (E. carotovora) was “very weak antibacterial activity”. The “Severity of Disease” value (Pseudomonas lachrymans; 500 ppm) was 21%.
In the case of O=C(O)c1cn(CCF)c2cc3c(cc2c1=O)OCO3 [Compound (7)], the “Ratio of Diseased Seedling” value (Pseudomonas solanacearum; 500 ppm) is reported as 18%, the “Severity of Disease” value (Erwinia carotovora) is reported as 0% and the “Infected Plants” value (P. lachrymans; [1]) is reported as 0%. For the same compound, the “Severity of Disease” value (Xanthomonas oryzae) was 0%, the MIC (E. carotovora) was 0.78 µg/mL (≈ 2.79 µM) and the “Severity of Disease” value (Pseudomonas lachrymans; 500 ppm) was 12%.
O=C(O)c1cn(CCCl)c2cc3c(cc2c1=O)OCO3 [Compound (9)] was tested, and the “Ratio of Diseased Seedling” value (Pseudomonas solanacearum; 500 ppm) was 14%, the “Severity of Disease” value (Erwinia carotovora) was 0% and the “Severity of Disease” value (Xanthomonas oryzae) was 0%. The MIC (E. carotovora) was 1.56 µg/mL (≈ 5.28 µM) and the “Severity of Disease” value (Pseudomonas lachrymans; 500 ppm) was 19%.
In the case of CCn1c(C)c(C(=O)O)c(=O)c2cc3c(cc21)OCO3 [(11)], the MIC (E. carotovora) is reported as over 50 µg/mL and the antibacterial activity (E. carotovora) is reported as “very weak antibacterial activity”.
For C=Cn1cc(C(=O)O)c(=O)c2cc3c(cc21)OCO3 [Compound (4)], the “Ratio of Diseased Seedling” value (Pseudomonas solanacearum; 500 ppm) was 6%, the “Severity of Disease” value (Erwinia carotovora) was 0% and the “Infected Plants” value (P. lachrymans; [1]) was 0%. For the same compound, the “Severity of Disease” value (Xanthomonas oryzae) was 0%, the MIC (E. carotovora) was 0.78 µg/mL (≈ 3.01 µM) and the “Severity of Disease” value (Pseudomonas lachrymans; 500 ppm) was 4.6%.
